{"source": "patent US6358885B1", "about": "“Substituted phenylheterocyclic herbicides” (Mississippi State University, priority 1992, dated 2002)", "key": {"wild oat": {"tested_on": "wild oat", "experiment": "Test B preemergence/postemergence greenhouse plant response rating 0 to 10", "assay_type": "in vivo, Avena fatua", "conditions": "for Plant response rating, Wild oat: 0 to 10 scale", "how_it_was_run": "(§1)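 Test chemicals, dissolved in a non-phytotoxic solvent, were applied to soil at planting and, at the same time, over foliage of seedlings at the one to four leaf stage.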"}, "rape": {"tested_on": "rape", "experiment": "Test C preemergence/postemergence greenhouse plant response rating 0 to 100", "assay_type": "in vivo, Brassica napus", "conditions": "for Plant response rating, Rape: 125 g/ha, 0 to 100 scale", "how_it_was_run": "(§2)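 Compounds in non-phytotoxic solvent went onto sandy loam before emergence (seeded one day earlier) or onto plants at the one-to-four leaf stage. Duck salad was treated via flood water (~2.5 cm, maintained) over silt loam.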"}, "chickweed": {"tested_on": "chickweed", "experiment": "Test C preemergence/postemergence greenhouse plant response rating 0 to 100", "assay_type": "in vivo, Stellaria media", "conditions": "for Plant response rating, Chickweed: 125 g/ha, 0 to 100 scale", "how_it_was_run": "as §2"}, "rice": {"tested_on": "rice", "experiment": "Test C flood test plant response rating 0 to 100", "assay_type": "in vivo, Oryza sativa", "how_it_was_run": "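Compounds in non-phytotoxic solvent applied preemergence to sandy loam one day after planting, postemergence at the 1–4 leaf stage, or to ~2.5 cm floodwater over silt loam.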"}, "cocklebur": {"tested_on": "cocklebur", "experiment": "Test B preemergence/postemergence greenhouse plant response rating 0 to 10", "assay_type": "in vivo, Xanthium pensylvanicum", "conditions": "for Plant response rating, Cocklebur: 0 to 10 scale", "how_it_was_run": "as §1"}, "crabgrass": {"tested_on": "crabgrass", "experiment": "Test B preemergence/postemergence greenhouse plant response rating 0 to 10", "assay_type": "in vivo, Digitaria spp.", "conditions": "for Plant response rating, Crabgrass: 0 to 10 scale", "how_it_was_run": "as §1"}, "wild buckwheat": {"tested_on": "wild buckwheat", "experiment": "Test B preemergence/postemergence greenhouse plant response rating 0 to 10", "assay_type": "in vivo, Polygonum convolvulus", "conditions": "for Plant response rating, Wild buckwheat: 0 to 10 scale", "how_it_was_run": "as §1"}, "giant foxtail": {"tested_on": "giant foxtail", "experiment": "Test C preemergence/postemergence greenhouse plant response rating 0 to 100", "assay_type": "in vivo, Setaria faberii", "conditions": "for Plant response rating, Giant foxtail: 125 g/ha, 0 to 100 scale", "how_it_was_run": "as §2"}, "downy brome": {"tested_on": "downy brome", "experiment": "Test C preemergence/postemergence greenhouse plant response rating 0 to 100", "assay_type": "in vivo, Bromus tectorum", "conditions": "for Plant response rating Downy Brome: 125 g/ha, 0 to 100 scale", "how_it_was_run": "as §2"}}, "data": [{"smiles": "COCOc1cc(-c2nn3c(c2Cl)CCCC3)c(F)cc1Cl", "note": "[Compound 58]", "values": [{"measurement": "Plant response rating, Wild oat", "setting": "wild oat; POSTEMERGENCE, Rate 50 g/ha", "result": 7}, {"measurement": "Plant response rating, Wild oat", "setting": "wild oat; PREEMERGENCE, Rate 50 g/ha", "result": 6}, {"measurement": "Plant response rating (0 to 10 scale), Wild oat", "setting": "wild oat; PREEMERGENCE, Rate 200 g/ha", "result": 9}, {"measurement": "Plant response rating, Wild oat", "setting": "wild oat; Rate 200 g/ha, POSTEMERGENCE", "result": 9}, {"measurement": "Plant response rating, Rape", "setting": "rape; POSTEMERGENCE", "result": 100}, {"measurement": "Plant response rating (0 to 100), Rape", "setting": "rape; POSTEMERGENCE, Rate 2 g/ha", "result": 30}, {"measurement": "Plant response rating, Rape", "setting": "rape; PREEMERGENCE", "result": 70}, {"measurement": "Plant response rating (0 to 100), Rape", "setting": "rape; PREEMERGENCE, Rate 2 g/ha", "result": 0}, {"measurement": "Plant response rating (0 to 100), Rape", "setting": "rape; Rate 8 g/ha, POSTEMERGENCE", "result": 50}, {"measurement": "Plant response rating (0 to 100), Rape", "setting": "rape; Rate 8 g/ha, PREEMERGENCE", "result": 0}, {"measurement": "Plant response rating (0 to 100), Rape", "setting": "rape; Rate 31 g/ha, POSTEMERGENCE", "result": 70}, {"measurement": "Plant response rating (0 to 100), Rape", "setting": "rape; Rate 31 g/ha, PREEMERGENCE", "result": 10}, {"measurement": "Plant response rating, Chickweed", "setting": "chickweed; POSTEMERGENCE", "result": 100}, {"measurement": "Plant response rating (0 to 100), Chickweed", "setting": "chickweed; POSTEMERGENCE, Rate 2 g/ha", "result": 20}, {"measurement": "Plant response rating, Chickweed", "setting": "chickweed; PREEMERGENCE", "result": 70}, {"measurement": "Plant response rating (0 to 100), Chickweed", "setting": "chickweed; PREEMERGENCE, Rate 2 g/ha", "result": 10}, {"measurement": "Plant response rating (0 to 100), Chickweed", "setting": "chickweed; Rate 8 g/ha, POSTEMERGENCE", "result": 70}, {"measurement": "Plant response rating (0 to 100), Chickweed", "setting": "chickweed; Rate 31 g/ha, POSTEMERGENCE", "result": 100}, {"measurement": "Plant response rating (0 to 100), Chickweed", "setting": "chickweed; Rate 31 g/ha, PREEMERGENCE", "result": 10}, {"measurement": "Plant response rating (0 to 100), Rice Japonica", "setting": "rice; POSTEMERGENCE section, flood test, Rate 2 g/ha", "result": 0}, {"measurement": "Plant response rating (0 to 100), Rice Japonica", "setting": "rice; Rate 8 g/ha, under POSTEMERGENCE head (flood test species)", "result": 0}, {"measurement": "Plant response rating (0 to 100), Rice Japonica", "setting": "rice; Rate 31 g/ha, under POSTEMERGENCE head (flood test species)", "result": 0}, {"measurement": "Plant response rating Rice Japonica", "setting": "rice; flood test species listed under POSTEMERGENCE, 125 g/ha, 0 to 100 scale", "result": 50}, {"measurement": "Plant response rating, Cocklebur", "setting": "cocklebur; POSTEMERGENCE, Rate 50 g/ha", "result": 6}, {"measurement": "Plant response rating, Cocklebur", "setting": "cocklebur; PREEMERGENCE, Rate 50 g/ha", "result": 0}, {"measurement": "Plant response rating (0 to 10 scale), Cocklebur", "setting": "cocklebur; PREEMERGENCE, Rate 200 g/ha", "result": 9}, {"measurement": "Plant response rating, Cocklebur", "setting": "cocklebur; Rate 200 g/ha, POSTEMERGENCE", "result": 10}, {"measurement": "Plant response rating, Crabgrass", "setting": "crabgrass; POSTEMERGENCE, Rate 50 g/ha", "result": 3}, {"measurement": "Plant response rating, Crabgrass", "setting": "crabgrass; PREEMERGENCE, Rate 50 g/ha", "result": 0}, {"measurement": "Plant response rating (0 to 10 scale), Crabgrass", "setting": "crabgrass; PREEMERGENCE, Rate 200 g/ha", "result": 9}, {"measurement": "Plant response rating, Crabgrass", "setting": "crabgrass; Rate 200 g/ha, POSTEMERGENCE", "result": 3}, {"measurement": "Plant response rating, Wild buckwheat", "setting": "wild buckwheat; POSTEMERGENCE, Rate 50 g/ha", "result": 10}, {"measurement": "Plant response rating, Wild buckwheat", "setting": "wild buckwheat; PREEMERGENCE, Rate 50 g/ha", "result": 9}, {"measurement": "Plant response rating (0 to 10 scale), Wild buckwheat", "setting": "wild buckwheat; PREEMERGENCE, Rate 200 g/ha", "result": 10}, {"measurement": "Plant response rating, Wild buckwheat", "setting": "wild buckwheat; Rate 200 g/ha, POSTEMERGENCE", "result": 10}, {"measurement": "Plant response rating, Giant foxtail", "setting": "giant foxtail; POSTEMERGENCE", "result": 100}, {"measurement": "Plant response rating (0 to 100), Giant foxtail", "setting": "giant foxtail; POSTEMERGENCE, Rate 2 g/ha", "result": 20}, {"measurement": "Plant response rating, Giant foxtail", "setting": "giant foxtail; PREEMERGENCE", "result": 100}, {"measurement": "Plant response rating (0 to 100), Giant foxtail", "setting": "giant foxtail; PREEMERGENCE, Rate 2 g/ha", "result": 0}, {"measurement": "Plant response rating (0 to 100), Giant foxtail", "setting": "giant foxtail; Rate 8 g/ha, POSTEMERGENCE", "result": 40}, {"measurement": "Plant response rating (0 to 100), Giant foxtail", "setting": "giant foxtail; Rate 8 g/ha, PREEMERGENCE", "result": 0}, {"measurement": "Plant response rating (0 to 100), Giant foxtail", "setting": "giant foxtail; Rate 31 g/ha, POSTEMERGENCE", "result": 70}, {"measurement": "Plant response rating (0 to 100), Giant foxtail", "setting": "giant foxtail; Rate 31 g/ha, PREEMERGENCE", "result": 60}, {"measurement": "Plant response rating Downy Brome", "setting": "downy brome; POSTEMERGENCE", "result": 90}, {"measurement": "Plant response rating (0 to 100), Downy Brome", "setting": "downy brome; POSTEMERGENCE, Rate 2 g/ha", "result": 20}, {"measurement": "Plant response rating Downy Brome", "setting": "downy brome; PREEMERGENCE", "result": 70}, {"measurement": "Plant response rating (0 to 100), Downy Brome", "setting": "downy brome; PREEMERGENCE, Rate 2 g/ha", "result": 0}, {"measurement": "Plant response rating (0 to 100), Downy Brome", "setting": "downy brome; Rate 8 g/ha, POSTEMERGENCE", "result": 40}, {"measurement": "Plant response rating (0 to 100), Downy Brome", "setting": "downy brome; Rate 8 g/ha, PREEMERGENCE", "result": 0}]}]}
